Test results reported in PMC5110245, “Identification and reconstitution of the rubber biosynthetic machinery on rubber particles from Hevea brasiliensis” (eLife, 2016).

Assays:
Format in all cases: biochemical
HRT1–HRBP–REF = molecular target: T1, HRT1–HRBP–REF (Hevea brasiliensis, UniProt Q8L5B7); experiment: […]-IPP incorporation into rubber, allylic substrate dependency; details: allylic primer 15 µM; 100 µM [4-14C]IPP, 5 mM MgCl2, pH 7.5, 30 °C, 8 h; on WRPs
T1 construct: gene Hpt4; full-length CDSs, wheat germ cell-free co-translation onto CHAPS-washed Hevea rubber particles (WRPs); HRBP His6-tagged; stoichiometry not known; endogenous background present; Rubber elongation factor protein
T1 sequence (P15252 2-138, one chain of several): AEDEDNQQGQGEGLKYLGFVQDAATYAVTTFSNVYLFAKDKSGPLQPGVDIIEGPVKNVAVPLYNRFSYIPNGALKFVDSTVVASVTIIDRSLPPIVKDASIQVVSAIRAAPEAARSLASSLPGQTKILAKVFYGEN
T1 sequence (A0A1E1GJI0 entry or part of it, one chain of several, further chain): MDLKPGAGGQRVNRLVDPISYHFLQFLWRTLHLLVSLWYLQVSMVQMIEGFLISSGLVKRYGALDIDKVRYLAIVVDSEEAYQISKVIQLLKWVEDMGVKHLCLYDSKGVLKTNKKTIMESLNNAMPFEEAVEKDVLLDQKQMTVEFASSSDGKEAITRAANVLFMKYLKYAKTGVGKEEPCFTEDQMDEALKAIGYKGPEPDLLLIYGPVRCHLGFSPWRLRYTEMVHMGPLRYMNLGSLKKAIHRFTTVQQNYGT

LsCPT3-LsCPTL2 = molecular target: T2, LsCPT3-LsCPTL2 (Lactuca sativa, UniProt A0A0A0QMT0); experiment: […]-IPP incorporation into rubber, net of vector-control WRPs; details: 15 µM FPP, 5 mM MgCl2, pH 7.5, 30 °C; on Hevea WRPs; labelled compound
T2 construct: full-length synthetic CDSs (LsCPT3 in pEU-E01-His-TEV-MCS-N2, LsCPTL2 in pEU-E01-His-TEV-MCS-C1); wheat germ cell-free co-translation onto CHAPS-washed Hevea rubber particles (WRPs); with cis-prenyltransferase-like 2
T2 sequence (A0A0A0QMT0 1-296): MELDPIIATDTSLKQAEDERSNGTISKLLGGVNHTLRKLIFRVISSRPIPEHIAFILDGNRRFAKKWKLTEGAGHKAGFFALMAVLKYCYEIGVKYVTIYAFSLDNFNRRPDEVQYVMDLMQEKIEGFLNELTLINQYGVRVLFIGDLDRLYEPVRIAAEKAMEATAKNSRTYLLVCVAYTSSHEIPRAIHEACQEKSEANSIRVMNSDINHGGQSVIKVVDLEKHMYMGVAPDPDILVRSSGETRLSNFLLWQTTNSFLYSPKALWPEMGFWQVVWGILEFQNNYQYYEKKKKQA
T2 sequence (A0A0A0QP73 1-244 partner): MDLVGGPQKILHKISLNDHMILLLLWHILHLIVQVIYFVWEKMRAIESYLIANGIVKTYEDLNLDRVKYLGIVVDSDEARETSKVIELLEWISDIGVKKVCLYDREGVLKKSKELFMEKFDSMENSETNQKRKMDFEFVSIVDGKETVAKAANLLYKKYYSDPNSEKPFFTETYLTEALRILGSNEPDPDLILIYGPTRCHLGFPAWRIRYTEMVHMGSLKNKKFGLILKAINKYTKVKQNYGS

HRT1 = molecular target: T3, HRT1 (Hevea brasiliensis, UniProt Q8L5B7); experiment: as above; details: 15 µM FPP, 5 mM MgCl2, pH 7.5, 30 °C; on WRPs; labelled compound
T3 construct: gene Hpt4; full-length CDS in pEU-E01-His-TEV-MCS-N2; wheat germ cell-free translation onto CHAPS-washed Hevea rubber particles (WRPs), which keep small amounts of endogenous proteins
T3 sequence (Q8L5B7 1-290): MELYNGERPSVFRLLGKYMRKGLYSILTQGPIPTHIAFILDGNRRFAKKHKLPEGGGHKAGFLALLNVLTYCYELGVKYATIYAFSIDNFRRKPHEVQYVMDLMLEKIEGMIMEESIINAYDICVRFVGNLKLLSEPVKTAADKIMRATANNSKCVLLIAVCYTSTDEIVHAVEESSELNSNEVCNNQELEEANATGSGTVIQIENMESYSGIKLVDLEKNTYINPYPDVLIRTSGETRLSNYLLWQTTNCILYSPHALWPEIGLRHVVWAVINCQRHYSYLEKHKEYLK

`CC(C)=CCC/C(C)=C/CC/C(C)=C/COP(=O)(O)OP(=O)(O)O` [FPP, E,E-farnesyl diphosphate] was tested, and the “14C-IPP incorporation into rubber, allylic substrate dependency” value (HRT1–HRBP–REF) was “the RTase was most active with FPP (C15)”.

In the case of `C=C(C)CCOP(=O)(O)OP(=O)(O)O` [IPP, isopentenyl diphosphate], the “14C-IPP incorporation into rubber, net of vector-control WRPs” value (LsCPT3-LsCPTL2) is reported as “Co-expression of LsCPTL2 with LsCPT3 resulted in an increase of the activity of LsCPT3” and the “14C-IPP incorporation into rubber, net of vector-control WRPs” value (HRT1) is reported as “introduction of HRT1 onto WRPs distinctly increased the RTase activity (Figure 9A)”.
